Test results taken from patent US20250332265A1, “PSMA TARGETED CONJUGATE COMPOUNDS AND USES THEREOF” (priority 2021, published 2025).
Numbered stars: 1 amine (or outer) side, 2 acyl side, 3 side chain; on linkers, the order of the positions; unused ones are H or OH. Bridge positions count the residues as written; N and C are the ends. Square brackets hold non-standard residues; d marks the D form. Peptide text beside a SMILES is read from it. I, II: the chains in the order shown. * marks the point of attachment. Hexanoyl(6-succinimido-3yl) = O=C1CC([*:1])C(=O)N1CCCCCC(=O)[*:2]; Dolaproine = CO[C@@H]([C@@H]1CCCN1)[C@@H](C)C(=O)O; Dil = CC[C@H](C)[C@H](NC)[C@@H](CC(=O)O)OC; γGlu = O=C(O)[C@H](CCC(=O)[*:2])N[*:1]; PABC = O=C(OCc1ccc(N[*:1])cc1)[*:2]; X1 = C[C@@H](N*)[C@@H](O)c1ccccc1; Trx = NC[C@H]1CC[C@H](C(=O)O)CC1; Cit = NC(=O)NCCC[C@H](N)C(=O)O; NMeV = CN[C@H](C(=O)O)C(C)C; CO = O=C([*:1])[*:2]; Ahx = NCCCCCC(=O)O

Key:
[1] = In vitro cytotoxicity by MTT assay, PC3flu; type: cell-based, human; conditions: 5 nM, 24 h, read-out: cell killing / drop of viability, PC3flu cells
Procedure: (§1) In vitro cytotoxicity was measured by MTT assay. Cells (10000 cells/well) were seeded in 96-well plates and incubated for 24 h before adding 5 nM free MMAE, PSMA-MMAE, or PSMA-AuNCs-MMAE. An equivalent amount of PSMA-AuNCs without MMAE was added as a control, and another group of cells pretreated with 50 μM E64 inhibitor for 6 h was also incubated with PSMA-AuNCs-MMAE. After incubation for 1, 4, and 24 h, cells were rinsed with PBS and incubated with 1 mg/mL MTT solution in culture media for 3.5 h. After that media were removed, and 100 μL of DMSO was added. The absorbance was measured 15 min later by a plate reader (Tecan Infinite M200) with absorbance at 570 nm and reference at 620 nm.

PC3pip cells [2] = assay: In vitro radiotherapy (colony survival); type: cell-based, human; conditions: 1 nM MMAE and/or 60 μg Au/mL, 6 h, X-ray 0-6 Gy
Procedure: Both PC3pip and PC3flu cells (1×10^5 cells/well) were cultured in 6-well plates for 24 h, and then PSMA-AuNC-MMAE and PSMA-MMAE were added at an equivalent MMAE concentration of 1 nM. Additionally, PSMA-AuNCs without MMAE was added at 60 μg Au/mL. Another group with the addition of a mixture of PSMA-AuNCs and PSMA-AuNC-MMAE at the equivalent dose of Au and MMAE was also evaluated. Mixing was performed so as to keep Au concentrations equivalent. This could not be achieved by adding more PSMA-AuNC-MMAE as this would result in toxic levels of MMAE. Cells without any treatment were used as blank control. Following incubation for 6 h, the media were removed, and cells were rinsed by PBS before exposing to X-ray radiation at doses of 0, 2, 4, and 6 Gy. Next, cells were trypsinized, counted, and reseeded in 6-well plate for colonies to grow. After 2 weeks, all the wells were rinsed with PBS, fixed with 4% paraformaldehyde, and stained by 0.4% crystal violet. The number of colonies from each well was counted to calculate the survive fraction.

PC3pip cells [3] = assay: In vitro cytotoxicity by MTT assay, PC3pip; type: cell-based, human; conditions: 5 nM, 24 h
Procedure: as §1

PC3pip tumor = assay: In vivo chemoradiotherapy; set-up: species or system mice
Procedure: Male athymic nude mice were subcutaneously implanted with the PC3pip tumor, and when the tumor size reached about 100 mm^3 (tumor volume=length×width^2/2), the mice were divided into ten groups randomly. Each group was intravenously injected with PBS, PSMA-AuNCs, PSMA-AuNCs-MMAE, PSMA-MMAE, or a mixture of PSMA-AuNCs and PSMA-MMAE at MMAE dose of 400 nmol/kg and an equivalent dose of Au. At 4 h postinjection, five of the groups were irradiated with X-rays (6 Gy, Cs-137 with energy of 0.6616 MeV) focusing on the tumor region, and the other five groups received the same injections but no radiation and were used as controls. Each group contained five mice. All the treatments were given only once, and then the mice were monitored for tumor size and body weight every other day for one month. The coefficient of drug interaction (CDI) is calculated as follows: CDI=C/(A×B),^44 where C is the tumor volume ratio of PSMA-AuNCs-MMAE+RT group to control group, A is the tumor volume ratio of PSMA-AuNCs+RT group to control group, and B is the tumor volume ratio of PSMA-MMAE+RT group to control group; PBS+RT group is the control. […] When the tumors became too large or an animal was moribund, they were euthanized. At the end of monitoring, all mice were euthanized and tumors were isolated and weighed.

[4] = Maximum tolerated dose (MTD); type: in vivo, mice; conditions: single dose i.v., tumor-free athymic nude mice
From the text: Mice were monitored daily for 14 days.

[5] = tested on: PSMA-positive PC3pip cells; assay: In vitro cytotoxicity assay (CCK-8), PC3pip; type: cell-based, human; conditions: 72 hours incubation
Procedure: Cells (1,000/well) were seeded in 96-well culture plates the day before treatment. Cells were incubated with various concentrations of drugs for 72 hours and cell viability evaluated by CCK-8 (Dojindo). The concentration required to reach 50% of cell proliferation was determined (IC50) by GraphPad Prism 3.0.

PC3flu cells = assay: In vitro cytotoxicity by MTT assay, PC3flu; type: cell-based, human; conditions: 5 nM, 24 h
Procedure: as §1

[6] = tested on: heterotopic PC3pip tumors; assay: Heterotopic survival study; type: in vivo, mice
From the text: Male athymic nude mice were implanted subcutaneously with 1×10^6 of PC3pip cells under the right dorsum of the mice. When tumor size reached approximately 100 mm^3 (tumor volume=Length×width^2/2), mice received drugs through tail vein injection. […] Animals were weighed and tumor size measured every other day for 90 days. Cures were defined as no tumor present at end of the 90-day study. When tumors became too large or animals were moribund they were euthanized. Five mice were used in each group.

[7] = tested on: α-tubulin in PC3pip and PC3flu cells; assay: Immunofluorescence analysis of alpha-tubulin; type: cell-based, human; conditions: 5 nM, 24 hours
Procedure: Cells on coverslips at about 70% confluency were incubated with 5 nM of MMAE, PSMA-1-VcMMAE-Cy5.5 or PSMA-1-McMMAE-Cy5.5 for 24 hours. Cells were washed and fixed with 4% paraformaldehyde for 10 minutes, permeabilized with 0.1% Triton™ X-100 for 10 minutes, and blocked with 1% BSA for 1 hour at room temperature. Alpha-tubulin (B5-1-2) Alexa Fluor 488 Mouse Monoclonal Antibody (Invitrogen) was then added at 2 μg/mL in 0.1% BSA and incubated for 3 hours at room temperature. Cells were counterstained with DAPI, mounted with Fluor-Mount aqueous mounting solution, and observed under Leica DM4000B fluorescence microscopy at 40×.

Compound: CC[C@H](C)[C@@H]([C@@H](CC(=O)N1CCC[C@H]1[C@H](OC)[C@@H](C)C(=O)N[C@H](C)[C@@H](O)c1ccccc1)OC)N(C)C(=O)[C@@H](NC(=O)[C@H](C(C)C)N(C)C(=O)OCc1ccc(NC(=O)[C@H](CCCNC(N)=O)NC(=O)[C@@H](NC(=O)CCCCCN2C(=O)CC(SC[C@H](NC(=O)[C@H](Cc3ccc(O)cc3)NC(=O)[C@H](CCCCN)NC(=O)[C@H](CCC(=O)O)NC(=O)[C@H](CCC(=O)O)NC(=O)[C@H](CCC(=O)O)NC(=O)CCCCCNC(=O)[C@H]3CC[C@H](CNC(=O)CC[C@H](NC(=O)N[C@@H](CCC(=O)O)C(=O)O)C(=O)O)CC3)C(N)=O)C2=O)C(C)C)cc1)C(C)C (stereo partly drawn) [PSMA-MMAE] (I: {Glu-CO-γGlu-Trx-Ahx}-EEEKYC-NH2 / II: V[Cit][PABC][NMeV]V[Dil][Dolaproine]-X1; linker I:6-II:N via Hexanoyl(6-succinimido-3yl); C-terminus assumed)
- cytotoxicity [1]: 18%
- radiosensitization (colony survival rate) of PC3pip cells (PC3pip cells [2]): notably lower survival rate
- cell killing, PC3pip cells (PC3pip cells [3]): 58%
- tumor volume increase (PC3pip tumor; 6 Gy radiation, day 30, MMAE 400 nmol/kg): 55%
- tumor volume increase (PC3pip tumor; no radiation, end of observation, MMAE 400 nmol/kg): 163%

Compound: CC[C@H](C)[C@@H]([C@@H](CC(=O)N1CCC[C@H]1[C@H](OC)[C@@H](C)C(=O)N[C@H](C)[C@@H](O)c1ccccc1)OC)N(C)C(=O)[C@@H](NC(=O)[C@@H](NC)C(C)C)C(C)C [MMAE, monomethyl auristatin E, reference compound] (H-[NMeV]V[Dil][Dolaproine]-X1)
- maximum tolerated dose (MTD) [4]: 700 nmol/kg
- selectivity, differential cytotoxicity between PC3pip and PC3flu cells [5]: no selectivity
- cell killing / drop of viability, PC3flu cells (PC3flu cells): over 70%
- time by which all mice died ([6]; 160 nmol/kg): ≤ 36 days
- antitumor activity (tumor growth), words ([6]; 160 nmol/kg i.v. every four days, 5 doses): relatively ineffective at inhibiting tumor growth
- cell killing, PC3pip cells (PC3pip cells [3]): over 70%
- disruption of α-tubulin network [7]: non-selective tubulin disruption
